Laboratory results as given in ChEMBL document CHEMBL1201862, “PubChem BioAssay data set” (2004).
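Method: 48-hour compound exposure of cells in 96-well plates, five concentrations, linear interpolation of endpoints. The concentration for 50% growth inhibition is given as GI50.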 Active and inactive are the calls of the source. No stated cut-off is given here; in the data, active = GI50 up to about 1.1 µM and inactive = higher.

Tests used:
Experiment in all cases: DTP human tumour cell line panel, 48 h
[1] = tested on: A549
[2] = tested on: ACHN
[3] = tested on: CAKI-1
[4] = tested on: COLO 205
[5] = tested on: DMS-114
[6] = tested on: DMS-273
[7] = tested on: HCC 2998
[8] = tested on: HCT-116
[9] = tested on: HL-60
[10] = tested on: HOP-18
[11] = tested on: IGROV-1
[12] = tested on: K562
[13] = tested on: KM-20L2
[14] = tested on: KM12
[15] = tested on: LXFL 529
[16] = tested on: M19-MEL
[17] = tested on: MOLT-4
[18] = tested on: Malme-3M
[19] = tested on: NCI-H23
[20] = tested on: NCI-H460
[21] = tested on: OVCAR-3
[22] = tested on: OVCAR-4
[23] = tested on: OVCAR-5
[24] = tested on: SF-295
[25] = tested on: SF-539
[26] = tested on: SN12C
[27] = tested on: SW-620
[28] = tested on: UACC-257
[29] = tested on: UACC-62
[30] = tested on: 786-0
[31] = tested on: A498
[32] = tested on: BT-549
[33] = tested on: CCRF-CEM
[34] = tested on: DLD-1
[35] = tested on: DU-145
[36] = tested on: EKVX
[37] = tested on: HCT-15
[38] = tested on: HOP-62
[39] = tested on: HOP-92
[40] = tested on: HT-29
[41] = tested on: Hs-578T
[42] = tested on: LOX IMVI
[43] = tested on: M14
[44] = tested on: MCF7
[45] = tested on: MDA-MB-231
[46] = tested on: MDA-MB-435
[47] = tested on: MDA-N
[48] = tested on: NCI-H226
[49] = tested on: NCI-H522
[50] = tested on: NCI/ADR-RES
[51] = tested on: OVCAR-8
[52] = tested on: PC-3
[53] = tested on: RPMI-8226
[54] = tested on: RXF 393
[55] = tested on: SF-268
[56] = tested on: SK-MEL-28
[57] = tested on: SK-MEL-2
[58] = tested on: SK-MEL-5
[59] = tested on: SK-OV-3
[60] = tested on: SNB-19
[61] = tested on: SNB-75
[62] = tested on: SR
[63] = tested on: T47D
[64] = tested on: TK-10
[65] = tested on: U-251
[66] = tested on: UO-31
[67] = tested on: XF498
[68] = tested on: SNB-78

CC[n+]1c(-c2ccccc2)c2cc(N)ccc2c2ccc(N)cc21
GI50 [1]: 9.57 µM (inactive)
GI50 [2]: 22.1 µM (inactive)
GI50 [3]: 11.8 µM (inactive)
GI50 [4]: 2.12 µM (inactive)
GI50 [5]: 1.29 µM (inactive)
GI50 [6]: 0.481 µM (active)
GI50 [7]: 2.67 µM (inactive)
GI50 [8]: 2.79 µM (inactive)
GI50 [9]: 4.3 µM (inactive)
GI50 [10]: 3.59 µM (inactive)
GI50 [11]: 1.42 µM (inactive)
GI50 [12]: 2.35 µM (inactive)
GI50 [13]: 3.91 µM (inactive)
GI50 [14]: 2.95 µM (inactive)
GI50 [15]: 0.668 µM (active)
GI50 [16]: 1.88 µM (inactive)
GI50 [17]: 1.64 µM (inactive)
GI50 [18]: 2.24 µM (inactive)
GI50 [19]: 1.31 µM (inactive)
GI50 [20]: 3.3 µM (inactive)
GI50 [21]: 3.06 µM (inactive)
GI50 [22]: 6.68 µM (inactive)
GI50 [23]: 29.6 µM (inactive)
GI50 [24]: 3 µM (inactive)
GI50 [25]: 1.48 µM (inactive)
GI50 [26]: 2.51 µM (inactive)
GI50 [27]: 2.3 µM (inactive)
GI50 [28]: 2.65 µM (inactive)
GI50 [29]: 1.52 µM (inactive)

CC1CN1C(=O)NCCCCCCNC(=O)N1CC1C (stereo not drawn)
GI50 [30]: 51.6 µM (inactive)
GI50 [31]: > 100 µM (inactive)
GI50 [1]: 31.1 µM (inactive)
GI50 [2]: 9.53 µM (inactive)
GI50 [32]: > 100 µM (inactive)
GI50 [3]: 48.4 µM (inactive)
GI50 [33]: 14.7 µM (inactive)
GI50 [4]: > 100 µM (inactive)
GI50 [34]: > 100 µM (inactive)
GI50 [5]: > 36.2 µM (inactive)
GI50 [6]: 25.6 µM (inactive)
GI50 [35]: 22.2 µM (inactive)
GI50 [36]: > 100 µM (inactive)
GI50 [7]: > 100 µM (inactive)
GI50 [8]: 81.3 µM (inactive)
GI50 [37]: > 100 µM
GI50 [9]: 11.9 µM (inactive)
GI50 [10]: > 100 µM (inactive)
GI50 [38]: 30.2 µM (inactive)
GI50 [39]: > 93.5 µM (inactive)
GI50 [40]: > 100 µM (inactive)
GI50 [41]: > 100 µM (inactive)
GI50 [11]: > 100 µM (inactive)
GI50 [12]: > 97.5 µM (inactive)
GI50 [13]: > 100 µM (inactive)
GI50 [14]: > 100 µM (inactive)
GI50 [42]: 34.3 µM (inactive)
GI50 [15]: > 100 µM (inactive)
GI50 [43]: 68.2 µM (inactive)
GI50 [16]: > 100 µM (inactive)
GI50 [44]: 70.3 µM (inactive)
GI50 [45]: > 100 µM (inactive)
GI50 [46]: > 100 µM (inactive)
GI50 [47]: > 100 µM (inactive)
GI50 [17]: 15.5 µM (inactive)
GI50 [18]: > 100 µM (inactive)
GI50 [48]: > 75.7 µM (inactive)
GI50 [19]: 27.3 µM (inactive)
GI50 [20]: 2.61 µM (inactive)
GI50 [49]: > 100 µM (inactive)
GI50 [50]: 78.7 µM (inactive)
GI50 [21]: > 100 µM (inactive)
GI50 [22]: > 100 µM (inactive)
GI50 [23]: > 100 µM (inactive)
GI50 [51]: 69 µM (inactive)
GI50 [52]: > 100 µM (inactive)
GI50 [53]: > 100 µM (inactive)
GI50 [54]: > 100 µM (inactive)
GI50 [55]: 29.8 µM (inactive)
GI50 [24]: 54.3 µM (inactive)
GI50 [25]: 35 µM (inactive)
GI50 [56]: > 100 µM (inactive)
GI50 [57]: > 100 µM (inactive)
GI50 [58]: > 100 µM (inactive)
GI50 [59]: 66.5 µM (inactive)
GI50 [26]: 61.8 µM (inactive)
GI50 [60]: > 86.7 µM (inactive)
GI50 [61]: 62.7 µM (inactive)
GI50 [62]: 3.11 µM (inactive)
GI50 [27]: > 100 µM (inactive)
GI50 [63]: > 73.1 µM (inactive)
GI50 [64]: > 100 µM (inactive)
GI50 [65]: 65.3 µM (inactive)
GI50 [28]: > 100 µM (inactive)
GI50 [29]: 31.8 µM (inactive)
GI50 [66]: 79.4 µM (inactive)
GI50 [67]: > 100 µM (inactive)

COC1/C=C/O[C@@]2(C)Oc3c(C)c(O)c4c(O)c(cc(O)c4c3C2=O)NC(=O)/C(C)=C\C=C\[C@H](C)C(O)[C@@H](C)[C@@H](O)[C@@H](C)[C@H](OC(C)=O)[C@@H]1C (stereo partly drawn)
GI50 [30]: 15.2 µM (inactive)
GI50 [31]: 38.2 µM (inactive)
GI50 [2]: 19.4 µM (inactive)
GI50 [32]: 18.5 µM (inactive)
GI50 [3]: 37.9 µM (inactive)
GI50 [33]: 2.06 µM (inactive)
GI50 [4]: 2.65 µM (inactive)
GI50 [34]: 10.1 µM (inactive)
GI50 [5]: 7.91 µM (inactive)
GI50 [6]: 17.9 µM (inactive)
GI50 [35]: 24 µM (inactive)
GI50 [7]: 18.8 µM (inactive)
GI50 [37]: 18.6 µM
GI50 [10]: 17.7 µM (inactive)
GI50 [38]: 117 µM (inactive)
GI50 [39]: 10.2 µM (inactive)
GI50 [40]: 14.9 µM (inactive)
GI50 [41]: 33 µM (inactive)
GI50 [11]: 22.7 µM (inactive)
GI50 [12]: 9.89 µM (inactive)
GI50 [13]: 13.3 µM (inactive)
GI50 [14]: 27.2 µM (inactive)
GI50 [42]: 14 µM (inactive)
GI50 [43]: 16.1 µM (inactive)
GI50 [16]: 12.1 µM (inactive)
GI50 [44]: 10.2 µM (inactive)
GI50 [45]: 23.3 µM (inactive)
GI50 [46]: 19.9 µM (inactive)
GI50 [47]: 14.5 µM (inactive)
GI50 [17]: 6.31 µM (inactive)
GI50 [18]: 30.6 µM (inactive)
GI50 [19]: 13.5 µM (inactive)
GI50 [49]: 5.3 µM (inactive)
GI50 [50]: 32.4 µM (inactive)
GI50 [22]: 13.1 µM (inactive)
GI50 [23]: 38.5 µM (inactive)
GI50 [51]: 18.7 µM (inactive)
GI50 [52]: 16 µM (inactive)
GI50 [54]: 11.2 µM (inactive)
GI50 [55]: 24.5 µM (inactive)
GI50 [24]: 94.8 µM (inactive)
GI50 [25]: 25.9 µM (inactive)
GI50 [56]: 22.5 µM (inactive)
GI50 [57]: 13.8 µM (inactive)
GI50 [58]: 32.1 µM (inactive)
GI50 [59]: 110 µM (inactive)
GI50 [26]: 14.1 µM (inactive)
GI50 [60]: 82.2 µM (inactive)
GI50 [61]: 36.8 µM (inactive)
GI50 [68]: 32.8 µM (inactive)
GI50 [62]: 6.15 µM (inactive)
GI50 [63]: 17.7 µM (inactive)
GI50 [64]: 20.1 µM (inactive)
GI50 [65]: 44.2 µM (inactive)
GI50 [28]: 13 µM (inactive)
GI50 [29]: 18.1 µM (inactive)
GI50 [66]: 51.3 µM (inactive)
GI50 [67]: 14.8 µM (inactive)

Nc1nc2[nH]c(=O)cnc2c(=O)[nH]1 [ISOXANTHOPTERIN]
GI50 [31]: > 125 µM (inactive)
GI50 [1]: > 125 µM (inactive)
GI50 [3]: > 125 µM (inactive)
GI50 [33]: > 125 µM (inactive)
GI50 [4]: > 125 µM (inactive)
GI50 [34]: > 125 µM (inactive)
GI50 [5]: > 125 µM (inactive)
GI50 [6]: > 125 µM (inactive)
GI50 [36]: > 125 µM (inactive)
GI50 [7]: > 125 µM (inactive)
GI50 [8]: > 125 µM (inactive)
GI50 [37]: > 78.9 µM
GI50 [9]: > 125 µM (inactive)
GI50 [10]: > 5.81 µM (inactive)
GI50 [38]: > 125 µM (inactive)
GI50 [39]: > 125 µM (inactive)
GI50 [40]: > 125 µM (inactive)
GI50 [11]: > 125 µM (inactive)
GI50 [12]: > 125 µM (inactive)
GI50 [13]: > 72.4 µM (inactive)
GI50 [14]: > 125 µM (inactive)
GI50 [42]: > 125 µM (inactive)
GI50 [16]: > 85.1 µM (inactive)
GI50 [44]: > 125 µM (inactive)
GI50 [17]: > 125 µM (inactive)
GI50 [18]: > 108 µM (inactive)
GI50 [48]: > 125 µM (inactive)
GI50 [19]: > 125 µM (inactive)
GI50 [20]: > 125 µM (inactive)
GI50 [49]: > 19.8 µM (inactive)
GI50 [50]: > 125 µM (inactive)
GI50 [21]: > 125 µM (inactive)
GI50 [22]: > 125 µM (inactive)
GI50 [23]: > 99.1 µM (inactive)
GI50 [51]: > 125 µM (inactive)
GI50 [53]: > 125 µM (inactive)
GI50 [54]: > 125 µM (inactive)
GI50 [55]: > 125 µM (inactive)
GI50 [24]: > 125 µM (inactive)
GI50 [25]: > 125 µM (inactive)
GI50 [56]: > 125 µM (inactive)
GI50 [57]: > 125 µM (inactive)
GI50 [58]: > 125 µM (inactive)
GI50 [59]: > 125 µM (inactive)
GI50 [26]: > 125 µM (inactive)
GI50 [60]: > 125 µM (inactive)
GI50 [61]: > 125 µM (inactive)
GI50 [68]: > 125 µM (inactive)
GI50 [27]: > 125 µM (inactive)
GI50 [65]: > 125 µM (inactive)
GI50 [28]: > 125 µM (inactive)
GI50 [29]: > 125 µM (inactive)
GI50 [66]: > 125 µM (inactive)
GI50 [67]: 10.6 µM (inactive)
